The source of these data is patent US20220080027A1, “METHODS OF TREATING NEURODEGENERATIVE DISEASES BY TARGETING THE PURINERGIC AND/OR ADENOSINE RECEPTORS” (Board of Regents, The University of Texas System, priority 2020, published 2022).

“Also recorded” adds a separate entry of the source.

Experiment [1] deals with PBMCs obtained from uninfected individuals. The experiment in a line: ATP release by PBMCs from uninfected individuals (ATPlite). Format: cell-based, human. Conditions: for effect on release of ATP in response to HIV-gp120: PBMCs from uninfected individuals, Prob 500 μM, 10Panx1 peptide 300 μM, TAK779 5 μM, AMD3100 5 μM; for induction of ATP secretion: treatment of uninfected PBMCs, 30 min. The method, then:
(§1) ATP Assay. […] Luminescence was measured using a PerkinElmer EnVision Multilabel Plate Reader. […] To assure rigor in these determinations, some samples were submitted for blinded analysis of ATP levels using mass spectrometry (University of North Dakota, N. Dak.).
(§2) Uninfected and HIV-infected PBMCs were isolated as described above.
(ATP-based viability assays read luminescence as a measure of living cells.)

Experiment [2] deals with T1, Panx-1 channels (Homo sapiens, UniProt Q96RD7).
T1 construct: PBMCs isolated from uninfected individuals maintain the pannexin-1 channels in a closed stage; endogenous in cells; host or cells: freshly isolated human PBMCs (uninfected or HIV-infected donors)
T1 sequence (Q96RD7 whole entry): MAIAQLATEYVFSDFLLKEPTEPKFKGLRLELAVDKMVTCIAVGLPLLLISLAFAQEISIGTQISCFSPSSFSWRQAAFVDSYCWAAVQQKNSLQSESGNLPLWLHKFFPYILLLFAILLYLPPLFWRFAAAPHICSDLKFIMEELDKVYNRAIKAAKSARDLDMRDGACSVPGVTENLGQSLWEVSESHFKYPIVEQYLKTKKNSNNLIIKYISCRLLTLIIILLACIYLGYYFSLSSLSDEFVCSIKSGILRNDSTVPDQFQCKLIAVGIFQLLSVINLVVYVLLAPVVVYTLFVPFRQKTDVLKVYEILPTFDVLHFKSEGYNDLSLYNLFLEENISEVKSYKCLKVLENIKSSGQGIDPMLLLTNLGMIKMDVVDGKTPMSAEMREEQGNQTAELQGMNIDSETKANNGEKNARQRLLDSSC
The experiment in a line: Ethidium (Etd) dye uptake, PBMCs from HIV-infected individuals. Format: cell-based. The following applies: for effect on spontaneous Panx-1 channel opening (Etd uptake): Prob 500 μM, 10Panx peptide 200 μM; for effect on pannexin-1 channel opening and Etd uptake: FIG. 1F legend: PROB 50 μM, CBX 50 μM, PEP 300 μM, n=60. As to the method:
(§3) Dye uptake and time-lapse microscopy. To characterize the functional state of Panx-1 channels, dye-uptake experiments using ethidium (Etd) bromide were performed (Cat #15585011, ThermoFisher, Grand Island, N.Y., USA). Cells were washed twice in HBSS and then exposed to Locke's solution (containing 154 mM NaCl, 5.4 mM KCl, 2.3 mM CaCl2, 5 mM HEPES, and pH 7.4) with 5 μM Etd and time-lapse microscopy were then performed. Phase-contrast and fluorescence microscopy with time-lapse imaging were used to record cell appearance and fluorescence-intensity changes in each condition. Fluorescence was recorded every 30 s. The NIH ImageJ program was used for off-line image analysis and fluorescence quantification. For data representation and calculation of Etd uptake slopes, the average of two independent background fluorescence (FB) (expressed as A.U.) was subtracted from mean fluorescent intensity (F1). Results of this calculation (F1-FB), for at least 20 cells, were averaged and plotted against time (expressed in minutes). Slopes were calculated using Microsoft Excel software and expressed as A.U./min. The microscope and camera settings remained the same in all experiments. Dead cells or cells with a damaged plasma membrane were identified during the time-lapse microscopy as a result of their nonspecific Etd uptake rate, determined by lack of time dependency and stability in dye uptake (not inhibited by channel blockers), and were not quantified.
(§4) However, the chronic effects of HIV infection on Panx-1 channel activity were unknown. To determine the status of the channel, Panx-1 channel opening was determined by Ethidium (Etd, 5 μM) uptake rate Ethidium only crosses the plasma membrane in healthy cells by passing through specific large channels, such as Connexin (Cx) and Pannexin (Panx) hemichannels, and its rate of intracellular accumulation is reflective of channel opening.
To assess the opening of the Panx-1 channels on PBMCs isolated from HIV-infected individuals, the inventors used a similar approach as described above. The inventors analyzed Panx-1 channel opening using dye uptake rate on PBMCs isolated from 60 different HIV-infected individuals, mostly with low to undetectable replication, as described in Table 1.

Experiment [3] relates to PBMCs obtained from HIV-infected individuals. In words: Spontaneous ATP release by PBMCs from HIV-infected individuals. The following applies: no stimulation, Prob 500 μM, 10Panx1 peptide 300 μM. Format: cell-based, human. The method, then: as §1, §2
Experiment [4] concerns PBMCs obtained from uninfected individuals. The experiment in a line: PGE2 release by PBMCs from uninfected individuals (ELISA). The experiment is classed as cell-based, human. Conditions: for effect on release of PGE2 in response to HIV-gp120: PBMCs from uninfected individuals, Prob 500 μM, 10Panx1 peptide 300 μM, TAK779 5 μM, AMD3100 5 μM; for induction of PGE2 secretion: treatment of uninfected PBMCs, 30 min. The method, then:
(§5) Analysis of IL-1β and PGE2 release. Plasma/serum was collected, divided into aliquots, and stored at −80° C. There were no freeze-thaw cycles before analysis. Plasma/serum was analyzed for TNF-α, IL-1β (Quantikine ELISA kit; R and D Systems, Minneapolis Minn., USA) and PGE2 (Abcam, Cambridge, Mass., USA) by enzyme-linked immunosorbent assay (ELISA) according to the manufacturer's instructions.
as §2

For experiment [5], the system named is PBMCs obtained from HIV-infected individuals. In words: Spontaneous PGE2 release by PBMCs from HIV-infected individuals. The experiment is classed as cell-based, human. Conditions: no stimulation, Prob 500 μM, 10Panx1 peptide 300 μM. As to the method: as §5, §2
In experiment [6] the target is T1, Panx-1 channels. In words: Ethidium (Etd) dye uptake, PBMCs from uninfected individuals. Format: cell-based. Conditions: for effect on basal Etd uptake: PBMCs from uninfected individuals, Prob 500 μM, CBX 500 μM, 10Panx peptide 200 μM, FIG. 1C; for induction of Panx-1 channel opening: treatment of uninfected PBMCs, 30 min, gp120 1 μg/ml, TNF-α 10 ng/ml, IL-1β 10 U/ml, IFN-γ 10 ng/ml, LPS 1 μg/ml. As to the method:
as §3, §4

The next experiment concerns purinergic receptors. Conditions: in vivo mouse model [116]; cited from earlier work.
The test system of experiment [7] is BBB model (primary human BMVEC and primary human astrocytes). The experiment in a line: BBB disruption after transmigration of HIVADA infected PBMCs. The experiment is classed as cell-based. The method, then: (§6) Blood-brain barrier (BBB) model: This in vitro BBB model consists of primary human BMVEC and primary human astrocytes in co-culture on opposite sides of a gelatin-coated, 3 μm pore-size tissue culture insert (Falcon, B D, Franklin Lakes, N.J.) as described by the inventors. Co-cultures were maintained for three days to enable contact between astrocyte endfeet with BMVEC on the opposite side of the model as described. After this, the BBB model was treated with different ATP concentrations (Cat #A1852, Sigma Chemical Co., St. Louis, Mo., USA), and BBB permeability was measured using BSA conjugated to Evans Blue, as described by the inventors.
(§7) PBMCs infected with the HIVADA were added to the top chamber of BBB co-cultures without CCL2 in the bottom chamber (HIV).

The subject of experiment [8] is HIVADA infected PBMCs (lymphocytes and monocytes). In words: Transmigration of HIVADA infected PBMCs across the in vitro BBB model in response to CCL2. Conditions: added to the co-culture; oATP 100 μM, apyrase 100 units/ml; data not shown. Format: cell-based, human. As to the method:
as §6, §7

Another experiment has as its system HIV. The experiment in a line: HIV replication and viral entry. The experiment is classed as cell-based.
In experiment [9] the target is CD4 on PBMCs from uninfected individuals (human) (UniProt P01730). In words: cell-based or functional assay.
The mark [10] stands for this setting: added to the co-culture, oATP 100 μM, apyrase 100 units/ml, data not shown.

With `c1cc(CN2CCCNCCNCCCNCC2)ccc1CN1CCCNCCNCCCNCC1` [AMD3100], the “effect on release of ATP in response to HIV-gp120” value (from here on “effect on release of ATP”) in experiment [1] was “prevented the release”. Moreover, at Panx-1 channels [2], the “effect on spontaneous Panx-1 channel opening (Etd uptake)” value (shortened to “effect … (Etd uptake)”) is “did not prevent”. The “effect on spontaneous release of ATP” value in experiment [3] was “no significant effects”. For the same molecule, the “effect on release of PGE2 in response to HIV-gp120” value (from here on “effect on release of PGE2”) in experiment [4] is “prevented the release”. For the same molecule, the “effect on spontaneous release of PGE2” value in experiment [5] was “no significant effects”.
For `Cc1ccc(-c2ccc3c(c2)C=C(C(=O)Nc2ccc(C[N+](C)(C)C4CCOCC4)cc2)CCC3)cc1.[Cl-]` [TAK779], the “effect on release of ATP” value in [1] is “prevented the release”. Moreover, the “effect … (Etd uptake)” value at Panx-1 channels [2] is “did not prevent”. Further, the “effect on spontaneous release of ATP” value in [3] was “no significant effects”. For the same molecule, the “effect on release of PGE2” value in [4] was “prevented the release”. Moreover, in experiment [5], the “effect on spontaneous release of PGE2” value is reported as “no significant effects”.
For `CC1(C)[C@@H](OC(=O)CCC(=O)O)CC[C@]2(C)[C@H]3C(=O)C=C4[C@@H]5C[C@@](C)(C(=O)O)CC[C@]5(C)CC[C@@]4(C)[C@]3(C)CC[C@@H]12` [carbenoxolone], at Panx-1 channels [6], the “effect on basal Etd uptake” value is given as “did not affect”. For the same molecule, the “effect on pannexin-1 channel opening and Etd uptake” value at Panx-1 channels [2] was “able to prevent the opening of the pannexin-1 channel and Etd uptake”.
In the case of `[La]` [lanthanum], the “effect on release of ATP” value is listed as “did not alter” in [1] and “did not affect” in [1] (listed as Lanthanum). Besides, the “effect on basal Etd uptake” value at Panx-1 channels [6] is listed as “did not have any effect”. Besides, the “effect … (Etd uptake)” value at Panx-1 channels [2] is reported as “did not affect”. Besides, the “effect on spontaneous release of ATP” value was “did not alter” in [3] and “did not affect” in [3] (listed as Lanthanum). Moreover, the entries for the “effect on release of PGE2” value in experiment [4] and in experiment [4] (listed as Lanthanum) were “did not alter” and “did not affect”, respectively. The entries for the “effect on spontaneous release of PGE2” value in experiment [5] and in experiment [5] (listed as Lanthanum) were “did not alter” and “did not affect”, respectively.
Regarding `Nc1ncnc2c1ncn2[C@@H](C=O)O[C@@H](C=O)COP(=O)(O)OP(=O)(O)OP(=O)(O)O` [oATP], in the experiment with purinergic receptors, the “onset of diabetes and inflammatory bowel disease” value was “can prevent the onset of diabetes and inflammatory bowel disease”; the “systemic blocking of purinergic receptors” value was “good systemic blocker of purinergic receptors”. In addition, the “effect on BBB disruption” value in experiment [7] (setting [10]) is “blocked”. Also, in [8], the effect on transmigration entry was “blocked”. Moreover, the “inhibition of HIV replication and viral entry” value in the experiment on HIV is “potent inhibitor”.
Consider `CCCN(CCC)S(=O)(=O)c1ccc(C(=O)O)cc1` [probenecid], for which, in experiment [1], the “effect on release of ATP” value was “prevented the release”. In [7] (HIVADA infected PBMCs preincubated with blocker, CCL2), the “effect on BBB disruption” value is listed as “reduced BBB disruption”. Moreover, the “effect on basal Etd uptake” value at Panx-1 channels [6] is recorded as “did not affect”. Also, the “effect on pannexin-1 channel opening and Etd uptake” value on Panx-1 channels [2] is “able to prevent the opening of the pannexin-1 channel and Etd uptake”. Moreover, the “effect on spontaneous release of ATP” value in experiment [3] is on record as “prevented the release”. Further, the “effect on release of PGE2” value in experiment [4] is “prevented the release”. The “effect on spontaneous release of PGE2” value in [5] is reported as “prevented the release”.
In the case of “IL-1p: cytokine used to treat uninfected PBMCs”, in experiment [1], the “induction of ATP secretion” value is given as “does not induce”. In addition, in the experiment with Panx-1 channels [6], the “induction of Panx-1 channel opening” value was “does not induce”. Moreover, the “induction of PGE2 secretion” value in [4] is “does not induce”.
In the case of TNF-α, the “induction of ATP secretion” value in experiment [1] is on record as “does not induce”. Also, the “induction of Panx-1 channel opening” value on Panx-1 channels [6] was “does not induce”. Further, the “induction of PGE2 secretion” value in experiment [4] is “does not induce”.
As for apyrase, the “effect on BBB disruption” value in experiment [7] (setting [10]) is “blocked”. Besides, in experiment [8], the effect on transmigration result is reported as “blocked”.
In experiment [9], “recombinant protein HIV-gp120 (HIV-Bal) (ligand)” displayed a release of ATP after 30 min (uninfected PBMCs, gp120 1 µg/ml) of 5.9 µM and a release of PGE2 after 30 min (uninfected PBMCs, gp120 1 µg/ml) of 56.8 pg/mL.

B1: Cx43^E2: a peptide that specifically blocks Cx43 hemichannels (peptide)
VH: EVQLQQPGAELVKPGASVKLSCKASGYTFTSYYMYWVKQRPGQGLEWIGGINPSNGGTNFNEKFKNKATLTVDKSSSTAYMQLSSLTSEDSAVYYCTREGNPYYTMNYWGQGTSVTVSS
VL: DIVMTQSPSSLSVSAGEKVTMSCKSSQSLLNSGNQKTYLAWYQQKPGQPPKLLIYGASTRESGVPDRFTGSGSGTDFTLTISSVQAEDLAVYYCQNDHSYPFTFGSGTKLEIK
In the case of B1, the “effect on release of ATP” value in experiment [1] is “did not alter; also recorded: did not affect”. Moreover, the “effect on basal Etd uptake” value with Panx-1 channels [6] is on record as “did not have any effect”. For the same molecule, in the experiment with Panx-1 channels [2], the “effect … (Etd uptake)” value was “did not affect”. Besides, in experiment [3], the “effect on spontaneous release of ATP” value was “did not alter; also recorded: did not affect”. The “effect on release of PGE2” value in [4] is “did not alter; also recorded: did not affect”. Also, the “effect on spontaneous release of PGE2” value in experiment [5] is on record as “did not alter; also recorded: did not affect”.

B2: IFN-γ: cytokine used to treat uninfected PBMCs (protein, UniProt P01579 24-161, looked up)
Interferon gamma: QDPYVKEAENLKKYFNAGHSDVADNGTLFLGILKNWKEESDRKIMQSQIVSFYFKLFKNFKDDQSIQKSVETIKEDMNVKFFNSNKKKRDDFEKLTNYSVTDLNVQRKAIHELIQVMAELSPAAKTGKRKRSQMLFRG
As for B2, the “induction of ATP secretion” value in experiment [1] is reported as “does not induce”. Moreover, the “induction of Panx-1 channel opening” value with Panx-1 channels [6] is reported as “does not induce”. Further, the “induction of PGE2 secretion” value in experiment [4] is given as “does not induce”.
